{
  "source": "patent US8541670B2",
  "about": "“Compositions and methods for inhibiting tumor cell growth” (priority 2007, dated 2013)",
  "key": {"PKAc": {"target": "T1, PKAc (Homo sapiens, UniProt P17612)", "T1 construct": "purchased Upstate Biotechnology", "experiment": "Independent kinase assays on catalytic activity of PKAc", "type": "biochemical", "text": "Of particular interest with regard to inhibitory activity toward AKT was peptide […](SEQ ID NO:60) which flanked the Thr-197 phosphorylation site of PKAc. […] Furthermore, the inhibitory effect of ZaTa peptide was compared with an adjacent peptide ([…] SEQ ID NO:59), a peptide that overlaps with the 11 N-terminal amino acid residues of the ZaTa peptide and carries the Thr-197 phosphorylation site. In this assay, the level of incorporation of −^32 P into Ser-21 GSK-3[…] substrate peptide was used as the measure of AKT1 in vitro catalytic activity.\nFor non-radioactive kinase assays, typically 25 ng of active AKT1 or PKAc (Upstate Biotechnology) was used in a kinase assay reaction buffer (20 mM MOPS, pH 7.2, 25 mM […]-glycerophosphate, 5 mM EGTA, 1 mM Na3VO4, 1 mM dithiothreitol, 75 mM MgCl2, and 0.5 mM ATP) in the presence of either 1 μL of Ser-9 GSK-3 GST fusion protein (Cell Signaling), or recombinant DARPP-32 (10 μg). […] A 5 μL aliquot of the reaction was transferred to phosphocellulose paper, washed for 30 minutes with dH2O, and CPM of samples read in scintillation counter."}, "PI3K[…]": {"system": "PI3K[…]", "experiment": "In vitro kinase assay PI3K[…]", "type": "biochemical", "settings": "ten times higher concentration than 0.1 μM", "method": "As a specific substrate, the phosphorylation level of GSK-3[…] at Ser-9 was also evaluated. […] The decrease was specific to the AKT phosphorylation site on GSK-3[…] at Ser-9, since a change in the phosphorylation level of GSK-3[…] at Tyr-216 or GSK-3[…] at Tyr-279 was not observed. Moreover, the in vivo reduction of the phosphorylation of AKT substrates was more obvious at the injection site, since a significant change in the phosphorylation of AKT substrates in the frontal cortex or cerebellum between the two hemispheres was not observed. […] To test the specificity/selectivity of ZaTa as the inhibitor of AKT1 versus the other major kinases, a series of in vitro kinase assays was performed at IC50 for AKT1 and at ten times higher concentrations. A panel of the following 32 kinases was first tested in vitro using the active form of each kinase and a specific substrate: AKT2, AKT3, PKA, PKC[…], PKC, PI3K[…], PI3K[…], PI3K, SGK, PAK2, PAK3, SAPK2/p38, Abl, CaMKII, CDK1/cyclinB, CDK5/p35, CK1, CK2, CSK, GSK3[…], GSK3[…], JNK1[…]1, MAPK1, p70S6K, PDGFR[…], PDGFR[…], PDK1, PKG1[…], TrkB, JAK2, JAK3, and Syk. […] However, at ten times higher concentration, ZaTa inhibited AKT2 (63%), PI3K[…] (72%), p70S6K (64%), SGK (73%), PAK3 (83%), JAK3 (79%), TrkB (84%), and Abl (42%). […]"}, "[1]": {"system": "the other kinases assayed", "experiment": "In vivo selectivity, western blot of phosphorylated substrates, other kinases inhibited in vitro at higher concentrations", "parameters": "species or system mouse", "settings": "versus DMSO hemisphere", "method": "To analyze in vivo selectivity, ZaTa was injected into one hemisphere and DMSO in the other hemisphere, as above, and a series of western blot analyses was preformed with phospho-specific antibodies which recognize a phosphorylated substrate or each one of the kinases that ZaTa inhibited at higher concentrations in vitro. […] Given the high functional and structural homology between p70S6K and AKT, the in vivo inhibitory effect of ZaTa on p70S6K was contemplated. Furthermore, the in vivo effect of ZaTa on the phosphorylation levels of substrates for PKA, PKC, CDKs using phospho-specific antibodies recognizing the phosphorylated consensus sites of these kinases was analyzed. In contrast to the consistent decrease in phosphorylation of AKT substrates, significant changes in the phosphorylation level of PKA, PKC and CDKs substrates was not observed after in vivo injection of ZaTa.\n(§1) Phosphorylation sites for kinases analyzed herein included Ser-235/236 S6 (a substrate for p70S6K), Tyr-207 CRKL (a substrate for Abl; Zipfel, et al. (2004) supra), Ser-241 PDK1 (a substrate for PI3K), Tyr-1022/1023 JAK1 (a substrate for JAK3; Wang, et al. (2003) supra), Ser-421 Huntingtin (a substrate for SGK; Rangone, et al. (2004) supra), Tyr-783 PLC (a substrate for TrkB; Middlemas, et al. (1994) supra), and Ser-338 cRaf (a substrate for PAK3; King, et al. (1998) supra)."}, "PI3K": {"system": "PI3K", "experiment": "Cell-based kinase assay, phosphorylation of intracellular substrate (Ser-241 PDK1)", "method": "As a specific substrate, the phosphorylation level of GSK-3[…] at Ser-9 was also evaluated. […] The decrease was specific to the AKT phosphorylation site on GSK-3[…] at Ser-9, since a change in the phosphorylation level of GSK-3[…] at Tyr-216 or GSK-3[…] at Tyr-279 was not observed. Moreover, the in vivo reduction of the phosphorylation of AKT substrates was more obvious at the injection site, since a significant change in the phosphorylation of AKT substrates in the frontal cortex or cerebellum between the two hemispheres was not observed. […] To test the specificity/selectivity of ZaTa as the inhibitor of AKT1 versus the other major kinases, a series of in vitro kinase assays was performed at IC50 for AKT1 and at ten times higher concentrations. […]\nas §1"}},
  "note": "Where no end group is shown, it is not given here. red fluorescent dye = not defined here",
  "data": [
    {"substance": "AKRVKGRTWTLCGTPEY [ZaTa]", "values": [
      {"measurement": "inhibitory effect on catalytic activity of PKAc", "setting": "PKAc", "value": "did not exhibit any inhibitory effect"},
      {"measurement": "inhibition of PI3K[…]", "setting": "PI3K[…]", "value": 72, "unit": "%"},
      {"measurement": "in vivo inhibitory effects on the other kinases assayed", "setting": "[1]", "value": "No in vivo inhibitory effects"}
    ]},
    {"substance": "labeled ZaTa: ZaTa peptide labeled with a red fluorescent dye at its N-terminus ({red fluorescent dye}-AKRVKGRTWTLCGTPEY; reading uncertain)", "values": [
      {"measurement": "inhibition of PI3K in cells", "setting": "PI3K", "value": "did not cause inhibition"}
    ]}
  ]
}
